In patent US7138361B2, “Herbicidal heterocycles” (E. I. du Pont de Nemours and Company, priority 2000, dated 2006):

Tests used:
Format in all cases: in vivo
rice (Oryza saliva) = assay: Test C flooded paddy test
In short: (§1)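 Flooded paddy, 2-leaf stage at treatment. Readout: visual % control vs untreated, 0–100, at 12–14 d in greenhouse.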

[1] = test system: barnyardgrass (Echinochloa crus-galli); assay: Test C flooded paddy test
In short: as §1

corn (Zea mays) = assay: Test C preemergence
In short: (§2)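 Visual injury scores of 0–100, with 100 meaning complete control, were given relative to controls after 12–14 days in the greenhouse. Treatments used a surfactant-containing non-phytotoxic solvent formulation, sprayed on seeded pots preemergence or on 1–4-leaf plants of 2–18 cm postemergence.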

[2] = test system: giant foxtail (Setaria faberii); assay: Test C preemergence
In short: as §2

[3] = test system: cocklebur (Xanthium strumarium); assay: Test C preemergence
In short: as §2

[4] = test system: morningglory (Ipomoea hederacea); assay: Test C preemergence
In short: as §2

[5] = test system: johnsongrass (Sorghum halepense); assay: Test C preemergence
In short: as §2

[6] = test system: bermudagrass (Cynodon dactylon); assay: Test C preemergence
In short: as §2

[7] = test system: Surinam grass (Brachiaria decumbens); assay: Test C preemergence
In short: as §2

[8] = test system: crabgrass (Digitaria sanguinalis); assay: Test C preemergence
In short: as §2

[9] = test system: velvetleaf (Abutilon theophrasti); assay: Test C preemergence
In short: as §2

soybean (Glycine max) = assay: Test C preemergence
In short: as §2

[10] = test system: common ragweed (Ambrosia elatior); assay: Test C preemergence
In short: as §2

[11] = test system: yellow nutsedge (Cyperus esculentus); assay: Test C preemergence
In short: as §2

Nightshade = assay: Test C preemergence
[12] = test system: woolly cupgrass (Eriochloa villosa); assay: Test C preemergence
In short: as §2

[13] = test system: pigweed (Amaranthus retroflexus); assay: Test C preemergence
In short: as §2

kochia (Kochia scoparia) = assay: Test C preemergence
In short: as §2

[14] = test system: lambsquarters (Chenopodium album); assay: Test C preemergence
In short: as §2

Sunflower [15] = assay: Test C preemergence
[16] = test system: goosegrass (Eleusine indica); assay: Test C preemergence
In short: as §2

Sunflower [17] = assay: Test C preemergence; settings: Rate 250 g/ha, visual evaluation after 12 to 14 days
[18] = Flooded Paddy, Rate 500 g/ha, scale 0 to 100
[19] = Flooded Paddy, Rate 1000 g/ha, scale 0 to 100
[20] = Flooded Paddy, Rate 250 g/ha, scale 0 to 100, 0 no effect, 100 complete control
[21] = flooded paddy test, Rate 62 g/ha, scale 0 to 100 (0 no effect, 100 complete control)
[22] = flooded paddy test, Rate 125 g/ha, scale 0 to 100 (0 no effect, 100 complete control)
[23] = Preemergence, Rate 500 g/ha, scale 0 to 100
[24] = Rate 62 g/ha, scale 0 to 100, 0 no effect, 100 complete control
[25] = preemergence, Rate 250 g/ha, visual evaluation after 12 to 14 days
[26] = preemergence, Rate 125 g/ha, scale 0 to 100, 0 no effect, 100 complete control

## O=C1C(n2ccc(C3CC3)n2)CCN1c1cccc(C(F)(F)F)c1 (centres unmarked) [Compound 8]
Rice (Oryza saliva); [18]
  Plant response rating, Rice: 60
Rice (Oryza saliva); [19]
  Plant response rating, Rice: 80
Rice (Oryza saliva); [20]
  Rice plant response rating: 60
Rice (Oryza saliva); [21]
  Plant response rating, Rice: 0
Rice (Oryza saliva); [22]
  Plant response rating, Rice: 0
[1]; [18]
  Plant response rating, Barnyardgrass: 70
[1]; [19]
  Plant response rating, Barnyardgrass: 100
[1]; [20]
  Barnyardgrass plant response rating: 40
[1]; [21]
  Plant response rating, Barnyardgrass: 0
[1]; [22]
  Plant response rating, Barnyardgrass: 0
Corn (Zea mays); [23]
  Plant response rating, Corn: 0
Corn (Zea mays); [24]
  Plant response rating, Corn: 0
Corn (Zea mays); [25]
  Plant response rating (0 to 100), Corn: 0
Corn (Zea mays); [26]
  Plant response rating, Corn: 0
[2]; [23]
  Plant response rating, Foxtail, Giant: 100
[2]; [24]
  Plant response rating, Foxtail, Giant: 0
[2]; [25]
  Plant response rating (0 to 100), Foxtail, Giant: 90
[2]; [26]
  Plant response rating, Foxtail, Giant: 20
[3]; [23]
  Plant response rating, Cocklebur: 0
[3]; [24]
  Plant response rating, Cocklebur: 0
[3]; [25]
  Plant response rating (0 to 100), Cocklebur: 0
[3]; [26]
  Plant response rating, Cocklebur: 0
[4]; [23]
  Plant response rating, Morningglory: 30
[4]; [24]
  Plant response rating, Morningglory: 20
[4]; [25]
  Plant response rating (0 to 100), Morningglory: 30
[4]; [26]
  Plant response rating, Morningglory: 30
[5]; [23]
  Plant response rating, Johnsongrass: 0
[5]; [24]
  Plant response rating, Johnsongrass: 0
[5]; [25]
  Plant response rating (0 to 100), Johnsongrass: 0
[5]; [26]
  Plant response rating, Johnsongrass: 0
[6]; [23]
  Plant response rating, Bermudagrass: 100
[6]; [24]
  Plant response rating, Bermudagrass: 0
[6]; [25]
  Plant response rating (0 to 100 where 0 is no effect and 100 is complete control), Bermudagrass: 70
[6]; [26]
  Plant response rating, Bermudagrass: 70
[7]; [23]
  Plant response rating, Surinam grass: 60
[7]; [24]
  Plant response rating, Surinam grass: 0
[7]; [25]
  Plant response rating (0 to 100), Surinam grass: 50
[7]; [26]
  Plant response rating, Surinam grass: 0
[8]; [23]
  Plant response rating, Crabgrass: 100
[8]; [24]
  Plant response rating, Crabgrass: 70
[8]; [25]
  Plant response rating (0 to 100), Crabgrass: 90
[8]; [26]
  Plant response rating, Crabgrass: 70
[9]; [23]
  Plant response rating, Velvetleaf: 20
[9]; [24]
  Plant response rating, Velvetleaf: 0
[9]; [25]
  Plant response rating (0 to 100), Velvetleaf: 20
[9]; [26]
  Plant response rating, Velvetleaf: 0
Soybean (Glycine max); [23]
  Plant response rating, Soybean: 20
Soybean (Glycine max); [24]
  Plant response rating, Soybean: 0
Soybean (Glycine max); [25]
  Plant response rating (0 to 100), Soybean: 20
Soybean (Glycine max); [26]
  Plant response rating, Soybean: 0
[10]; [23]
  Plant response rating, Ragweed, Common: 80
[10]; [24]
  Plant response rating, Ragweed, Common: 0
[10]; [26]
  Plant response rating, Ragweed, Common: 0
[11]; [23]
  Plant response rating, Nutsedge: 0
[11]; [24]
  Plant response rating, Nutsedge: 0
[11]; [25]
  Plant response rating (0 to 100), Nutsedge: 0
[11]; [26]
  Plant response rating, Nutsedge: 0
Nightshade; [24]
  Plant response rating, Nightshade: 0
Nightshade; Rate 125 g/ha, scale 0 to 100, 0 no effect, 100 complete control
  Plant response rating, Nightshade: 0
Nightshade; Rate 500 g/ha, scale 0 to 100
  Plant response rating, Nightshade: 0
[12]; [23]
  Plant response rating, Cupgrass, Woolly: 80
[12]; [24]
  Plant response rating, Cupgrass, Woolly: 0
[12]; [25]
  Plant response rating (0 to 100), Cupgrass, Woolly: 50
[12]; [26]
  Plant response rating, Cupgrass, Woolly: 40
[13]; [23]
  Plant response rating, Pigweed: 100
[13]; [24]
  Plant response rating, Pigweed: 20
[13]; [25]
  Plant response rating (0 to 100), Pigweed: 100
[13]; [26]
  Plant response rating, Pigweed: 80
Kochia (Kochia scoparia); [23]
  Plant response rating, Kochia: 70
Kochia (Kochia scoparia); [24]
  Plant response rating, Kochia: 0
Kochia (Kochia scoparia); [25]
  Plant response rating (0 to 100), Kochia: 20
Kochia (Kochia scoparia); [26]
  Plant response rating, Kochia: 0
[14]; [23]
  Plant response rating, Lambsquarters: 100
[14]; [24]
  Plant response rating, Lambsquarters: 100
[14]; [25]
  Plant response rating (0 to 100), Lambsquarters: 100
[14]; [26]
  Plant response rating, Lambsquarters: 100
Sunflower [15]; [24]
  Plant response rating, Sunflower: 0
Sunflower [15]; Rate 500 g/ha, scale 0 to 100
  Plant response rating, Sunflower: 30
[16]; [23]
  Plant response rating, Goosegrass: 100
[16]; [24]
  Plant response rating, Goosegrass: 0
[16]; [25]
  Plant response rating (0 to 100), Goosegrass: 90
[16]; [26]
  Plant response rating, Goosegrass: 20
Sunflower [17]
  Plant response rating (0 to 100), Sunflower: 0
